Test results: US20240158446A1, “CYCLIC COMPOUND HAVING SELECTIVE INHIBITORY ACTION ON KRAS OVER HRAS AND NRAS” (CHUGAI SEIYAKU KABUSHIKI KAISHA, priority 2021, published 2024)
Like-named read-outs stand apart in the source and are kept apart here.

Columns and labels:
[1] = biological target: GDP-bound HRAS wild-type protein (Homo sapiens, UniProt P01112); assay: Binding to HRAS by surface plasmon resonance (SPR), Single Cycle Kinetics; details: SPR, GDP-bound HRAS wild-type protein vs GDP-bound KRAS wild-type protein
[2] = test system: human lung cancer strain NCI-H441;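 note: cell proliferation inhibition after four days measured by CellTiter-Glo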
[3] = biological target: GDP-bound NRAS wild-type protein (Homo sapiens, UniProt P01111); assay: Binding to NRAS by surface plasmon resonance (SPR), Single Cycle Kinetics; details: SPR, GDP-bound NRAS wild-type protein vs GDP-bound KRAS wild-type protein
[4] = biological target: GDP-bound KRAS wild-type protein (Homo sapiens, UniProt P01116); assay: Binding to KRAS by surface plasmon resonance (SPR), Single Cycle Kinetics; details: SPR, Single Cycle Kinetics, GDP-bound KRAS wild-type protein, read-out: KRAS KD
GDP-bound KRAS wild-type protein, sequence (P01116 whole entry): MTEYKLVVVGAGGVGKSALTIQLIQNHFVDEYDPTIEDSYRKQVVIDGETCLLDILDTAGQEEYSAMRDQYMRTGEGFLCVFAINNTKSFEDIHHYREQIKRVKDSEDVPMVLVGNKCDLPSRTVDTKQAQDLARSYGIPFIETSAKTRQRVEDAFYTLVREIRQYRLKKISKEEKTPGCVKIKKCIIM

GDP-bound HRAS wild-type protein, sequence (P01112 whole entry): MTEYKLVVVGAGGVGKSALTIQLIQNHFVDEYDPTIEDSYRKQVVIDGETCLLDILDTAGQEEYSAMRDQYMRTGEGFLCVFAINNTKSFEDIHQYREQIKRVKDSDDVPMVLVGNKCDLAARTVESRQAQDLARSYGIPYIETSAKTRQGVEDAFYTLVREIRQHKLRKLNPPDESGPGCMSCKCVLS
GDP-bound NRAS wild-type protein, sequence (P01111 whole entry): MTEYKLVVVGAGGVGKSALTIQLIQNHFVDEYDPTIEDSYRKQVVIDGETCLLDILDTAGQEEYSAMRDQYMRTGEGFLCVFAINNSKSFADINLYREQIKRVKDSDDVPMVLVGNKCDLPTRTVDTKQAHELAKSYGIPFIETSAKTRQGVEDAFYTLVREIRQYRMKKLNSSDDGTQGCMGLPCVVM

IC50 [2]	Kd ([4]; 1:1 binding model)	Kd [4]	Structure (SMILES)	HRAS/KRAS (ratio of KD value for HRAS to KD value for KRAS) ([1]; KD ratio class)	NRAS/KRAS (ratio of KD value for NRAS to KD value for KRAS) ([3]; KD ratio class)	HRAS/KRAS (ratio of KD value for HRAS to KD value for KRAS) [1]	NRAS/KRAS (ratio of KD value for NRAS to KD value for KRAS) [3]
38.6 nM	0.2 nM		CCO[C@@H]1C[C@H]2C(=O)NC3(CCCC3)C(=O)N(C)[C@@H](C3CCCC3)C(=O)N(C)[C@H](C(=O)N(C)C)CC(=O)N(C)[C@@H](CC(C)C)C(=O)N[C@@H]([C@@H](C)CC)C(=O)N(C)CC(=O)N(C)[C@H]3C/C=C\CCN(C3=O)[C@@H](CC3CCC(F)(F)CC3)C(=O)N(C)CC(=O)N[C@@H](CCc3cc(F)c(C(F)(F)F)c(F)c3)C(=O)N2C1 [PP1459]	A (a compound having 10 or more and less than 20 is denoted as A)	A (a compound having 10 or more and less than 20 is denoted as A)		
138 nM		1.4 nM	CCCOC[C@H]1C(=O)N[C@@H]([C@@H](C)OCC)C(=O)N2CCC[C@H]2C(=O)N(C)[C@H]2C/C=C\CCN(C2=O)[C@@H](Cc2ccc(C)cc2)C(=O)N(C)CC(=O)N[C@@H](CCc2cc(F)c(C(F)(F)F)c(F)c2)C(=O)N2C[C@H](OCC)C[C@H]2C(=O)NC2(CC(C)(C)C2)C(=O)N(C)[C@@H](C2CCCC2)C(=O)N(C)[C@H](C(=O)N(C)CC)CC(=O)N1C [PP2432]			A (a compound having 10 or more and less than 20 is denoted as A)	A (a compound having 10 or more and less than 20 is denoted as A)
7.1 nM	0.05 nM		CC[C@H](C)[C@@H]1NC(=O)[C@H](CC)N(C)C(=O)C[C@@H](C(=O)N(C)C)N(C)C(=O)[C@H](C2CCCC2)N(C)C(=O)C2(CCCC2)NC(=O)[C@@H]2CCCN2C(=O)[C@H](CCc2cc(F)c(C(F)(F)F)c(F)c2)NC(=O)CN(C)C(=O)[C@H](Cc2ccc(C(F)(F)F)cc2)N2C[C@H](C)[C@H](C)C[C@@H](C2=O)N(C)C(=O)CN(C)C1=O [PP1364]	B (a compound having 3 or more and less than 10 is denoted as B)	A (a compound having 10 or more and less than 20 is denoted as A)		
1.4 nM	0.047 nM		CCCC[C@H]1C(=O)N[C@@H]([C@@H](C)CC)C(=O)N(C)CC(=O)N(C)[C@H]2C/C=C\CCN(C2=O)[C@@H](Cc2ccc(C(F)(F)F)cc2)C(=O)N(C)CC(=O)N[C@@H](CCc2cc(F)c(C(F)(F)F)c(F)c2)C(=O)N2C[C@H](OCC)C[C@H]2C(=O)NC2(CCC2)C(=O)N(C)[C@@H](C2CCCC2)C(=O)N(C)[C@H](C(=O)N(C)C)CC(=O)N1C [PP1392, (2S,8S,12R,14S,20S,23S,27S,30S,36S,38Z)-27-butyl-20-cyclopentyl-8-[2-[3,5-difluoro-4-(trifluoromethyl)phenyl]ethyl]-12-ethoxy-N,N,4,19,22,26,32,35-octamethyl-30-[(1S)-1-methylpropyl]-3,6,9,15,18,21,25,28,31,34,42-undecaoxo-2-[[4-(trifluoromethyl)phenyl]methyl]spiro[1,4,7,10,16,19,22,26,29,32,35-undecazatricyclo[34.5.1.0^10,14]dotetracont-38-ene-17,1′-cyclobutane]-23-carboxamide]	A (a compound having 10 or more and less than 20 is denoted as A)	A (a compound having 10 or more and less than 20 is denoted as A)		
10.2 nM		0.056 nM	CC[C@H](C)[C@@H]1NC(=O)[C@H](CC)N(C)C(=O)C[C@@H](C(=O)N(C)C)N(C)C(=O)[C@H](C2CCCC2)N(C)C(=O)C2(CCC2)NC(=O)[C@@H]2CC(F)(F)CN2C(=O)[C@H](CCc2cc(F)c(C(F)(F)F)c(F)c2)NC(=O)CN(C)C(=O)[C@H](Cc2ccc(C(F)(F)F)cc2)N2CC/C=C\C[C@@H](C2=O)N(C)C(=O)CN(C)C1=O [PP1129, (2S,8S,14S,20S,23S,27S,30S,36S,38Z)-20-cyclopentyl-8-[2-[3,5-difluoro-4-(trifluoromethyl)phenyl]ethyl]-27-ethyl-12,12-difluoro-N,N,4,19,22,26,32,35-octamethyl-30-[(1S)-1-methylpropyl]-3,6,9,15,18,21,25,28,31,34,42-undecaoxo-2-[[4-(trifluoromethyl)phenyl]methyl]spiro[1,4,7,10,16,19,22,26,29,32,35-undecazatricyclo[34.5.1.0^10,14]dotetracont-38-ene-17,1′-cyclobutane]-23-carboxamide]			B (a compound having 3 or more and less than 10 is denoted as B)	A (a compound having 10 or more and less than 20 is denoted as A)
46.3 nM	0.81 nM		CC[C@H](C)[C@@H]1NC(=O)[C@H](CC2CC2)N(C)C(=O)C[C@@H](C(=O)N2CCOCC2)N(C)C(=O)[C@H](C2CCCC2)N(C)C(=O)C2(CCC2)NC(=O)[C@@H]2CCCN2C(=O)[C@H](CCc2ccc(C(F)(F)F)c(Cl)c2)NC(=O)CN(C)C(=O)[C@H](Cc2ccc(C(F)(F)F)cc2)N2C[C@H](C)CC[C@@H](C2=O)N(C)C(=O)[C@@H]2CCN2C1=O [PP1341]	B (a compound having 3 or more and less than 10 is denoted as B)	A (a compound having 10 or more and less than 20 is denoted as A)		
11.5 nM	0.23 nM		CCO[C@@H]1C[C@H]2C(=O)NC3(CCC3)C(=O)N(C)[C@@H](C3CCCC3)C(=O)N(C)[C@H](C(=O)N3CCOCC3)CC(=O)N(C)[C@@H](CC)C(=O)N[C@@H]([C@@H](C)CC)C(=O)N3CC[C@H]3C(=O)N(C)[C@H]3CC[C@@H](C)CN(C3=O)[C@@H](Cc3ccc(C(F)(F)F)cc3)C(=O)N(C)CC(=O)N[C@@H](CCc3ccc(C(F)(F)F)c(Cl)c3)C(=O)N2C1 [PP1375]	B (a compound having 3 or more and less than 10 is denoted as B)	B (a compound having 3 or more and less than 10 is denoted as B)		
96.7 nM		0.28 nM	CC[C@H](C)[C@@H]1NC(=O)[C@H](COC)N(C)C(=O)C[C@@H](C(=O)N(C)C)N(C)C(=O)[C@H](C2CCCC2)N(C)C(=O)C2(CC(C)(C)C2)NC(=O)[C@@H]2C[C@H](C)CN2C(=O)[C@H](CCc2ccc(C(F)(F)F)c(OC)c2)NC(=O)CN(C)C(=O)[C@H](Cc2ccc(C)cc2)N2CC/C=C\C[C@@H](C2=O)N(C)C(=O)[C@@H]2C[C@H](OC)CN2C1=O [PP2390]			B (a compound having 3 or more and less than 10 is denoted as B)	A (a compound having 10 or more and less than 20 is denoted as A)
10.2 nM	0.16 nM		CCO[C@@H]1C[C@H]2C(=O)NC3(CCC3)C(=O)N(C)[C@@H](C3CCCC3)C(=O)N(C)[C@H](C(=O)N3CCOCC3)CC(=O)N(C)[C@@H](CC(C)C)C(=O)N[C@@H]([C@@H](C)CC)C(=O)N3CC[C@H]3C(=O)N(C)[C@H]3C[C@@H](C)[C@@H](C)CN(C3=O)[C@@H](Cc3ccc(C(F)(F)F)cc3)C(=O)N(C)CC(=O)N[C@@H](CCc3cc(F)c(C(F)(F)F)c(F)c3)C(=O)N2C1 [PP1355]	B (a compound having 3 or more and less than 10 is denoted as B)	A (a compound having 10 or more and less than 20 is denoted as A)		
28.2 nM		0.12 nM	CCOC[C@H]1C(=O)N[C@@H]([C@@H](C)CC)C(=O)N(C)CC(=O)N(C)[C@H]2C/C=C\CCN(C2=O)[C@@H](Cc2ccc(C)cc2)C(=O)N(C)CC(=O)N[C@@H](CCc2ccc(C(F)(F)F)c(OC)c2)C(=O)N2C[C@H](C)C[C@H]2C(=O)NC2(CC(C)(C)C2)C(=O)N(C)[C@@H](C2CCCC2)C(=O)N(C)[C@H](C(=O)N(C)C)CC(=O)N1C [PP2393]			A (a compound having 10 or more and less than 20 is denoted as A)	A (a compound having 10 or more and less than 20 is denoted as A)
12.8 nM	0.13 nM		CCO[C@@H]1C[C@H]2C(=O)NC3(CCC3)C(=O)N(C)[C@@H](C3CCCC3)C(=O)N(C)[C@H](C(=O)N3CCOCC3)CC(=O)N(C)[C@@H](CC)C(=O)N[C@@H]([C@@H](C)CC)C(=O)N3CC[C@H]3C(=O)N(C)[C@H]3C[C@@H](C)[C@@H](C)CN(C3=O)[C@@H](Cc3ccc(C(F)(F)F)cc3)C(=O)N(C)CC(=O)N[C@@H](CCc3cc(F)c(C(F)(F)F)c(F)c3)C(=O)N2C1 [PP1351]	B (a compound having 3 or more and less than 10 is denoted as B)	A (a compound having 10 or more and less than 20 is denoted as A)		
33.2 nM		1.4 nM	CCCOC[C@H]1C(=O)N[C@@H]([C@@H](C)CC)C(=O)N2CCC[C@H]2C(=O)N(C)[C@H]2C/C=C\CCN(C2=O)[C@@H](Cc2ccc(C)cc2)C(=O)N(C)CC(=O)N[C@@H](CCc2cc(F)c(C(F)(F)F)c(F)c2)C(=O)N2C[C@H](C)C[C@H]2C(=O)NC2(CC(C)(C)C2)C(=O)N(C)[C@@H](C2CCCC2)C(=O)N(C)[C@H](C(=O)N(C)CC)CC(=O)N1C [PP2430]			A (a compound having 10 or more and less than 20 is denoted as A)	AA (a compound having 20 or more is denoted as AA)
81.2 nM		3.3 nM	CCC[C@H]1C(=O)N[C@@H](CC(C)C)C(=O)N(CC)CC(=O)N(C)[C@H]2C/C=C\CCN(C2=O)[C@@H](Cc2ccc(C)cc2)C(=O)N(C)CC(=O)N[C@@H](CCc2ccc(C(F)(F)F)c(OC)c2)C(=O)N2C[C@H](OCC)C[C@H]2C(=O)NC2(CC(C)(C)C2)C(=O)N(C)[C@@H](C2CCCC2)C(=O)N(C)[C@H](C(=O)N(C)C)CC(=O)N1C [PP2518]			A (a compound having 10 or more and less than 20 is denoted as A)	A (a compound having 10 or more and less than 20 is denoted as A)
